Laboratory results from ChEMBL document CHEMBL1152560, “Substituted 2-arylbenzothiazoles as kinase inhibitors: hit-to-lead optimization” (Bioorg Med Chem, 2009).

What was measured:
[1] = biological target: Casein kinase II subunit alpha (Homo sapiens) (UniProt P68400); experiment: Residual activity of CK2alpha1 at 1 uM by microplate scintillation counting
[2] = biological target: Maternal embryonic leucine zipper kinase (Homo sapiens) (UniProt Q14680); experiment: Residual activity of MELK at 1 uM by microplate scintillation counting
Chain of Maternal embryonic leucine zipper kinase (Homo sapiens) (Q14680 whole entry, looked up): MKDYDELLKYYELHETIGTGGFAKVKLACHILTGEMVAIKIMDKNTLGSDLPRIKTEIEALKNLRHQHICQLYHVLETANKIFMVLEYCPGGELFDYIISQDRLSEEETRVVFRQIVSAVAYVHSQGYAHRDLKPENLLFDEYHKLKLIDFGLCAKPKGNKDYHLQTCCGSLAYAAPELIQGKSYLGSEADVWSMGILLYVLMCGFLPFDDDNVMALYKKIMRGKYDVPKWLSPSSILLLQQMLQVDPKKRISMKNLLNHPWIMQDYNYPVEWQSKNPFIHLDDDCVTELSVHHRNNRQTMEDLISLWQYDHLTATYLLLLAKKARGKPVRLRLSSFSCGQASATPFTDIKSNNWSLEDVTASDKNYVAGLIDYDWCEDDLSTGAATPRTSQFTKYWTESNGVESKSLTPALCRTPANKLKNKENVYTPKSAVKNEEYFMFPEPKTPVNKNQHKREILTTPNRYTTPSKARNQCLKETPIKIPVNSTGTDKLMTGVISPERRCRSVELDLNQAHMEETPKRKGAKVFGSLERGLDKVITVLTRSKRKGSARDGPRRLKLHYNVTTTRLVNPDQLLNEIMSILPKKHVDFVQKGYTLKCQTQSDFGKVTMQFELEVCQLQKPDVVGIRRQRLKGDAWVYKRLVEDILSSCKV

[3] = biological target: T1, NUAK family SNF1-like kinase 2 (Homo sapiens) (UniProt Q9H093); experiment: Residual activity of SNARK at 0.1 uM by microplate scintillation counting
T1 sequence (whole entry): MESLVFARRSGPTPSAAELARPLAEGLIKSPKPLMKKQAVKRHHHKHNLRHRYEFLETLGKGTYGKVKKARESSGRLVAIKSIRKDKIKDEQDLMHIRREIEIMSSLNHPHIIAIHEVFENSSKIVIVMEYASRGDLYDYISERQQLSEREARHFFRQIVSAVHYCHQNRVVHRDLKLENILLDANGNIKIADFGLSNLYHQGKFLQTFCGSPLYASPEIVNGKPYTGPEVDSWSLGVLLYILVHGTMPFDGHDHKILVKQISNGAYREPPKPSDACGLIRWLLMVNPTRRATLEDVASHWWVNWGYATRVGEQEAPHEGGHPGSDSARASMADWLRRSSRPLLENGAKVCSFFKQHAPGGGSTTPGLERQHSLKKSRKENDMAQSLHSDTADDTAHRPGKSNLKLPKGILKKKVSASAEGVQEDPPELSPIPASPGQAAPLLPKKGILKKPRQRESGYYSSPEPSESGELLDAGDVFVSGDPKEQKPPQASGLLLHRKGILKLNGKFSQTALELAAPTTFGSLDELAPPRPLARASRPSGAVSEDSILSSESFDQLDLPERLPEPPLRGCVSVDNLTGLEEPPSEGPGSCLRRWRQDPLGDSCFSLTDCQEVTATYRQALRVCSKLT

[4] = biological target: T2, Dual specificity protein kinase TTK (Homo sapiens) (UniProt P33981); experiment: Residual activity of TTK at 1 uM by microplate scintillation counting
T2 sequence (whole entry): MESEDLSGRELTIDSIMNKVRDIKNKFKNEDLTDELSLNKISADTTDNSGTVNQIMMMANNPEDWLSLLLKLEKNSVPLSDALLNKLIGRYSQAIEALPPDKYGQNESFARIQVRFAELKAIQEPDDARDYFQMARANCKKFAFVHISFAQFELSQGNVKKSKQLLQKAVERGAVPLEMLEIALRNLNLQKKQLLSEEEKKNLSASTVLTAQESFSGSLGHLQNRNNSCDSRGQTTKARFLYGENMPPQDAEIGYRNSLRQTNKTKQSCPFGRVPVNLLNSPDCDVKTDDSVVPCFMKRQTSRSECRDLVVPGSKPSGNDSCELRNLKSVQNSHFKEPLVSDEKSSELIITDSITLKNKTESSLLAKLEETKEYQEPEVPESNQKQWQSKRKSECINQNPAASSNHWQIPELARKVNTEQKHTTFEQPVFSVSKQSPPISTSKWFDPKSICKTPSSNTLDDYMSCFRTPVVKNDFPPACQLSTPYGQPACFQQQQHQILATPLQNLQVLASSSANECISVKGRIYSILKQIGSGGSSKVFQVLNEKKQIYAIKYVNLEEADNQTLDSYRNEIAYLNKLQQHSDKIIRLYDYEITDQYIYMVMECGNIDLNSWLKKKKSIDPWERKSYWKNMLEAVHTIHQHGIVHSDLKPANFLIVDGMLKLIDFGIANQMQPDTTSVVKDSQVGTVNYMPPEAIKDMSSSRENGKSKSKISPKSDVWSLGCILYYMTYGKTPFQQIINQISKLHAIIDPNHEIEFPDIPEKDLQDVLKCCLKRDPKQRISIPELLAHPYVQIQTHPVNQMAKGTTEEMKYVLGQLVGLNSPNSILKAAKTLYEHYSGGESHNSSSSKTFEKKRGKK

[5] = biological target: CDK8/Cyclin C (Homo sapiens) (UniProt P49336+P24863); experiment: Residual activity of CDK8/Cyclin C at 1 uM by microplate scintillation counting; format: protein-complex assay
[6] = biological target: T1, NUAK family SNF1-like kinase 2 (Homo sapiens); experiment: Residual activity of SNARK at 1 uM by microplate scintillation counting
[7] = biological target: Casein kinase II subunit alpha (Homo sapiens) (UniProt P68400); experiment: Residual activity of CK2alpha1 at 10 uM by microplate scintillation counting
[8] = biological target: Tyrosine-protein kinase Lck (Homo sapiens) (UniProt P06239); experiment: Residual activity of LCK at 1 uM by microplate scintillation counting
Chain of Tyrosine-protein kinase Lck (Homo sapiens) (P06239 2-509 limits assumed): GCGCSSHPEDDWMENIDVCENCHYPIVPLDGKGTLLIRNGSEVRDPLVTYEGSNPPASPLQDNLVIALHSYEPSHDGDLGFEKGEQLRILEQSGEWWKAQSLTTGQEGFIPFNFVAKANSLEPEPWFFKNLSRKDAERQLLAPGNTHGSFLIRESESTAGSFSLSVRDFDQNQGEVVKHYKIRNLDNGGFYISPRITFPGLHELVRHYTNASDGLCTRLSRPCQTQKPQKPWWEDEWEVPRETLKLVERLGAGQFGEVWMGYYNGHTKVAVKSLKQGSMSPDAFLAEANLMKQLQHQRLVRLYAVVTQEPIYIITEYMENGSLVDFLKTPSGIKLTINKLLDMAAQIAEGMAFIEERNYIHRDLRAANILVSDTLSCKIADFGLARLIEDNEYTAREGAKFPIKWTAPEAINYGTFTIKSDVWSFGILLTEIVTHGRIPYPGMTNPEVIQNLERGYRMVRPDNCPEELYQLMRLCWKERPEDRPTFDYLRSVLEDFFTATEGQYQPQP

[9] = biological target: T3, Eukaryotic translation initiation factor 2-alpha kinase 3 (Homo sapiens) (UniProt Q9NZJ5); experiment: Residual activity of EIF2AK3 at 0.1 uM by microplate scintillation counting
T3 sequence (whole entry): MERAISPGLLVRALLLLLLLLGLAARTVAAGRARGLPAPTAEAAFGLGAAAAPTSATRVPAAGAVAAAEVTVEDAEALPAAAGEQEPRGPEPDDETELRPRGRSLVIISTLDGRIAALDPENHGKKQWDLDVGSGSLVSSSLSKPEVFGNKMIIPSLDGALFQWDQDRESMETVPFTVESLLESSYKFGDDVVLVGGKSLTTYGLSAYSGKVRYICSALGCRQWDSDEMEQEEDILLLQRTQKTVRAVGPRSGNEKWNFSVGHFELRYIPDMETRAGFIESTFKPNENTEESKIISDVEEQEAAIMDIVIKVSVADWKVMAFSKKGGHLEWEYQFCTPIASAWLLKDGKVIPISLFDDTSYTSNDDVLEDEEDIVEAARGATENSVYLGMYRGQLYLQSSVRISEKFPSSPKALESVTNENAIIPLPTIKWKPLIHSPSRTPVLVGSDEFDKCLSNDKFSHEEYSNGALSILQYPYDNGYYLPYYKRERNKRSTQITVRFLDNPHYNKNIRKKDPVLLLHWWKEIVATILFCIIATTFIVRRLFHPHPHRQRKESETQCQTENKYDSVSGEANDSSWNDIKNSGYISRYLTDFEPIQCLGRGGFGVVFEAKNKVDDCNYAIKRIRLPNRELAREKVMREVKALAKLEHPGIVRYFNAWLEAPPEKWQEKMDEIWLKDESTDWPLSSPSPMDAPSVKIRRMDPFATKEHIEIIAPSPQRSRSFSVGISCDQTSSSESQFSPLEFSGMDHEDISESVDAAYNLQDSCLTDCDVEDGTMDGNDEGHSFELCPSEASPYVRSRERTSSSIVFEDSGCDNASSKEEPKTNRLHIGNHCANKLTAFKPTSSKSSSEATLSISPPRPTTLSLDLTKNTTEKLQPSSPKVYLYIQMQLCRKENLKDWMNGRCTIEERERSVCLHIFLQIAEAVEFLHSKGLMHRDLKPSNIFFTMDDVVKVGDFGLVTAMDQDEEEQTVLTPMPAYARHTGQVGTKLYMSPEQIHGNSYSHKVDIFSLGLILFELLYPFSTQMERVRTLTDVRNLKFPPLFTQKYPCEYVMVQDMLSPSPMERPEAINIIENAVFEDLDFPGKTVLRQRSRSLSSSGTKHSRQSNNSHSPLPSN

Chain of Casein kinase II subunit alpha (Homo sapiens) (P68400 whole entry, looked up): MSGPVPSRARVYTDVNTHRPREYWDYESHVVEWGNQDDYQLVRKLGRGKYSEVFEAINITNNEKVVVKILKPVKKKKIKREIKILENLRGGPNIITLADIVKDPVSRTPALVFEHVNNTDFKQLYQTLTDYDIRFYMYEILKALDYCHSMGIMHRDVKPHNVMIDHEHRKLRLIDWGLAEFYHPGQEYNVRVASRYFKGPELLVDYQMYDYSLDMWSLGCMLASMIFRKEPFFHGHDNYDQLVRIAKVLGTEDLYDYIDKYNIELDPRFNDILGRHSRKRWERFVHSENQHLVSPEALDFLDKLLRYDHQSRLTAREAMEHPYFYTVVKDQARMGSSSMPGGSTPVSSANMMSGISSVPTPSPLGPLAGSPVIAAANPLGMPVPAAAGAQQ

residual activity [1]	residual activity [2]	residual activity [3]	residual activity [4]	residual activity [5]	residual activity [6]	residual activity [7]	residual activity [8]	residual activity [9]	SMILES
94%	78%	84%	85%	95%	88%	188%	64%	102%	COc1cc2c(Oc3ccc(-c4nc5ccccc5s4)cc3)ncnc2cc1OCCCN1CCCC1
108%	68%	88%	105%	81%	91%	264%	50%	101%	COc1cc2c(Oc3ccc(-c4nc5ccccc5s4)cc3F)ncnc2cc1OCCCN1CCN(C)CC1
90%	106%	96%	101%	79%	87%	229%	46%	90%	COc1cc2c(Oc3ccc(-c4nc5ccccc5s4)cc3)ncnc2cc1OCCCN1CCN(C)CC1
